Measurements: PubChem BioAssay AID248 (DTP/NCI, 2004)
Inconclusive results and toxic doses are left out. Rule as the data show it: active = T/C of 150% or more; inactive = T/C below 125%.

Test system: L1210 leukemia ip in BDF1 mice, survival T/C
Assay: NCI In Vivo Anticancer Drug Screen. Data for tumor model L1210 Leukemia (intraperitoneal) in B6D2F1 (BDF1) mice
Details: endpoint: mean survival time, higher = longer survival
Summary of the method: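 Antitumor effect is assessed in tumor-bearing animals. Survival in the compound arm is compared with a vehicle-dosed control arm and expressed as their quotient.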

[1] = dose: 100.0 mg/kg/injection, schedule: Q01DX001 (ip), vehicle: carboxymethylcellulose (CMC)
[2] = dose: 200.0 mg/kg/injection, schedule: Q01DX001 (ip), vehicle: carboxymethylcellulose (CMC)
[3] = dose: 400.0 mg/kg/injection, schedule: Q01DX001 (ip), vehicle: carboxymethylcellulose (CMC)
[4] = dose: 100.0 mg/kg/injection, schedule: Q04DX003 (ip), vehicle: saline
[5] = dose: 200.0 mg/kg/injection, schedule: Q04DX003 (ip), vehicle: saline
[6] = dose: 400.0 mg/kg/injection, schedule: Q04DX003 (ip), vehicle: saline
[7] = dose: 100.0 mg/kg/injection, schedule: Q01DX009 (ip), vehicle: Klucel (hydroxypropylcellulose) (HPC)
[8] = dose: 100.0 mg/kg/injection, schedule: Q04DX003 (ip), vehicle: Klucel (hydroxypropylcellulose) (HPC)
[9] = dose: 200.0 mg/kg/injection, schedule: Q01DX009 (ip), vehicle: Klucel (hydroxypropylcellulose) (HPC)
[10] = dose: 200.0 mg/kg/injection, schedule: Q04DX003 (ip), vehicle: Klucel (hydroxypropylcellulose) (HPC)
[11] = dose: 400.0 mg/kg/injection, schedule: Q01DX009 (ip), vehicle: Klucel (hydroxypropylcellulose) (HPC)
[12] = dose: 400.0 mg/kg/injection, schedule: Q04DX003 (ip), vehicle: Klucel (hydroxypropylcellulose) (HPC)
[13] = dose: 75.0 mg/kg/injection, schedule: Q01DX001 (ip), vehicle: other
[14] = dose: 150.0 mg/kg/injection, schedule: Q01DX001 (ip), vehicle: other
[15] = dose: 100.0 mg/kg/injection, schedule: Q01DX009 (ip), vehicle: saline with Tween-80
[16] = dose: 200.0 mg/kg/injection, schedule: Q01DX009 (ip), vehicle: saline with Tween-80
[17] = dose: 25.0 mg/kg/injection, schedule: Q04DX003 (ip), vehicle: saline
[18] = dose: 50.0 mg/kg/injection, schedule: Q04DX003 (ip), vehicle: saline
[19] = dose: 100.0 mg/kg/injection, schedule: Q04DX003 (ip), vehicle: saline with Tween-80
[20] = dose: 200.0 mg/kg/injection, schedule: Q04DX003 (ip), vehicle: saline with Tween-80
[21] = dose: 400.0 mg/kg/injection, schedule: Q01DX009 (ip), vehicle: saline with Tween-80
[22] = dose: 400.0 mg/kg/injection, schedule: Q04DX003 (ip), vehicle: saline with Tween-80
[23] = dose: 100.0 mg/kg/injection, schedule: Q04DX002 (ip), vehicle: saline
[24] = dose: 200.0 mg/kg/injection, schedule: Q04DX002 (ip), vehicle: saline
[25] = dose: 400.0 mg/kg/injection, schedule: Q04DX002 (ip), vehicle: saline
[26] = dose: 50.0 mg/kg/injection, schedule: Q01DX009 (ip), vehicle: Klucel (hydroxypropylcellulose) (HPC)

Measured: T/C

COc1ccc(/C=C(/C(=O)c2ccc(O)cc2)c2ccccc2)cc1
inactive: [1] 87 % of control | [2] 89 % of control | [3] 87 % of control

O=C(NNc1c(Cl)cc(Cl)cc1Cl)C(O)C(O)C(O)C(O)CO (configuration not stated)
inactive: [4] 91 % of control | [5] 87 % of control | [6] 87 % of control

CCN(CC)c1ccc(/C=C/c2ccncc2)cc1
inactive: [7] 93 % of control | [8] 104 % of control | [9] 92 % of control | [10] 96 % of control | [11] 90 % of control | [12] 93 % of control

CCOP(=O)(OCC)C1CC(C(C)C)CCC1C (configuration not stated)
inactive: [13] 93 % of control | [14] 98 % of control | dose: 300.0 mg/kg/injection, schedule: Q01DX001 (ip), vehicle: other 110 % of control

CCc1nc2ccc(N=Cc3ccc(N(CCCl)CCCl)cc3C)cc2[nH]1
inactive: [8] 101 % of control | [10] 98 % of control | [12] 101 % of control

CC(=O)OC1CC2C=CC1C2 (configuration not stated) (tested in a mixture with another compound)
inactive: dose: 50.0 mg/kg/injection, schedule: Q01DX009 (ip), vehicle: saline with Tween-80 89 % of control | [15] 89 % of control | [16] 92 % of control

NC(=S)N/N=C/c1ccc(C(F)(F)F)cn1
inactive: dose: 13.3 mg/kg/injection, schedule: Q04DX003 (ip), vehicle: saline with Tween-80 108 % of control | dose: 20.0 mg/kg/injection, schedule: Q04DX003 (ip), vehicle: saline with Tween-80 103 % of control | dose: 30.0 mg/kg/injection, schedule: Q04DX003 (ip), vehicle: saline with Tween-80 113 % of control | dose: 45.0 mg/kg/injection, schedule: Q04DX003 (ip), vehicle: saline with Tween-80 112 % of control | dose: 67.5 mg/kg/injection, schedule: Q04DX003 (ip), vehicle: saline with Tween-80 111 % of control

Cc1ccc(C)n1-c1ccccc1C(=O)O
inactive: [7] 95 % of control | [8] 93 % of control | [9] 107 % of control | [10] 106 % of control | [11] 101 % of control | [12] 101 % of control

CNCC(NC)c1cc(OC)c(OC)c(OC)c1 (configuration not stated)
inactive: [4] 94 % of control | [5] 95 % of control | [6] 94 % of control

CSc1nccc(=O)n1C
inactive: dose: 12.5 mg/kg/injection, schedule: Q01DX009 (ip), vehicle: saline 96 % of control | dose: 25.0 mg/kg/injection, schedule: Q01DX009 (ip), vehicle: saline 96 % of control | [17] 98 % of control | dose: 50.0 mg/kg/injection, schedule: Q01DX009 (ip), vehicle: saline 101 % of control | [18] 106 % of control | [4] 107 % of control

CC1(c2cccnc2)OCCO1
inactive: dose: 75.0 mg/kg/injection, schedule: Q01DX001 (ip), vehicle: saline 97 % of control | dose: 150.0 mg/kg/injection, schedule: Q01DX001 (ip), vehicle: saline 98 % of control | dose: 300.0 mg/kg/injection, schedule: Q01DX001 (ip), vehicle: saline 95 % of control

NC(=O)CN1C(=O)c2ccccc2C1=O
inactive: [15] 97 % of control | [19] 97 % of control | [16] 89 % of control | [20] 97 % of control | [21] 91 % of control | [22] 97 % of control

Cc1ccc(Cl)cc1NC(=O)c1ccccc1C(=O)O
inactive: [7] 102 % of control | [8] 102 % of control | [9] 97 % of control | [10] 101 % of control | [11] 96 % of control | [12] 102 % of control

Cc1nc(SCc2ccc(Cl)cc2)[nH]c(=O)c1CCO
inactive: [15] 92 % of control | [16] 92 % of control | [21] 92 % of control

Cc1ccc(S(=O)(=O)Nc2c(C)c(Cl)c(C)c3ccccc23)cc1
inactive: [19] 94 % of control | [20] 87 % of control | [22] 89 % of control

CC1=C(Cl)C(Cl)(Cl)C(=O)C(=O)C1(Cl)Cl
inactive: dose: 6.25 mg/kg/injection, schedule: Q01DX009 (ip), vehicle: saline sonified 100 % of control | dose: 6.25 mg/kg/injection, schedule: Q04DX003 (ip), vehicle: Klucel (hydroxypropylcellulose) (HPC) 100 % of control | dose: 12.5 mg/kg/injection, schedule: Q01DX009 (ip), vehicle: saline sonified 102 % of control | dose: 12.5 mg/kg/injection, schedule: Q04DX003 (ip), vehicle: Klucel (hydroxypropylcellulose) (HPC) 95 % of control | dose: 25.0 mg/kg/injection, schedule: Q01DX009 (ip), vehicle: saline sonified 92 % of control | dose: 25.0 mg/kg/injection, schedule: Q04DX003 (ip), vehicle: Klucel (hydroxypropylcellulose) (HPC) 95 % of control

Cc1nc(N)nn1C
inactive: [23] 97 % of control | [24] 110 % of control | [25] 100 % of control

CC(=O)NN(c1ccc([N+](=O)[O-])cc1)c1ccc([N+](=O)[O-])cc1
inactive: [26] 97 % of control | [7] 90 % of control | [8] 93 % of control | [10] 95 % of control

Cc1cc2nc(CO)[nH]c2cc1C
inactive: [7] 94 % of control | [8] 95 % of control | [9] 96 % of control | [10] 93 % of control | [11] 98 % of control | [12] 92 % of control

Cc1cccc(Cl)c1NC(=O)Nc1cccc(O)c1
inactive: [15] 100 % of control | [16] 100 % of control | [21] 97 % of control

CC(=O)NS(=O)(=O)c1ccc(C)cc1
inactive: dose: 100.0 mg/kg/injection, schedule: Q04DX003 (ip), vehicle: acetone 115 % of control | dose: 200.0 mg/kg/injection, schedule: Q04DX003 (ip), vehicle: acetone 108 % of control | dose: 400.0 mg/kg/injection, schedule: Q04DX003 (ip), vehicle: acetone 97 % of control

CCOC(=O)c1ccc(N=C2C(C)(C)C(=Nc3ccc(C(=O)OCC)cc3)C2(C)C)cc1
inactive: dose: 100.0 mg/kg/injection, schedule: Q04DX002 (ip), vehicle: saline with Tween-80 93 % of control | dose: 200.0 mg/kg/injection, schedule: Q04DX002 (ip), vehicle: saline with Tween-80 87 % of control | dose: 400.0 mg/kg/injection, schedule: Q04DX002 (ip), vehicle: saline with Tween-80 87 % of control

CCC/C(=N\Nc1ccc([N+](=O)[O-])cc1[N+](=O)[O-])c1cccc([N+](=O)[O-])c1
inactive: [8] 93 % of control | [10] 92 % of control | [12] 97 % of control

CC1(C)CC(=O)NN1C(=O)c1ccccc1
inactive: [19] 108 % of control | [20] 103 % of control | [22] 102 % of control

NC(CC(=O)O)c1cccs1 (configuration not stated)
inactive: [23] 95 % of control | [24] 95 % of control | [25] 102 % of control

N#Cc1ccccc1N=NNc1ccccc1C#N
inactive: dose: 6.25 mg/kg/injection, schedule: Q01DX009 (ip), vehicle: Klucel (hydroxypropylcellulose) (HPC) 112 % of control | dose: 12.5 mg/kg/injection, schedule: Q01DX009 (ip), vehicle: Klucel (hydroxypropylcellulose) (HPC) 112 % of control | dose: 25.0 mg/kg/injection, schedule: Q01DX009 (ip), vehicle: Klucel (hydroxypropylcellulose) (HPC) 115 % of control | [13] 96 % of control | [14] 92 % of control

CC(=O)OC1=NC(C)c2c1cc(OC(C)=O)[nH]c2=O (configuration not stated)
inactive: [26] 102 % of control | [8] 108 % of control | [10] 115 % of control

O=C(O)C12CC3CC1C2C3
inactive: [19] 103 % of control | [20] 91 % of control | [22] 86 % of control

CCC(C)C(CCCCN1CCOCC1)(CNC(=O)CN(CC)CC)c1cccc2ccccc12 (configuration not stated)
inactive: dose: 12.5 mg/kg/injection, schedule: Q04DX003 (ip), vehicle: saline 104 % of control | [17] 98 % of control | [18] 108 % of control

COC(=O)C1=C(C)NC(=O)NC1c1ccccc1 (configuration not stated)
inactive: [19] 105 % of control | [20] 97 % of control | [22] 100 % of control

O=C1CC2=CC3C=CC(N1)C2C=C3 (configuration not stated)
inactive: [19] 109 % of control | [20] 106 % of control | [22] 109 % of control

CCCCCCCCCCCCCCCCS(=O)(=O)N/N=C/c1ccc2c(c1)OCO2
inactive: [1] 101 % of control | [2] 98 % of control | [3] 104 % of control
